Experimental data reported in US11684621B2, “Combination containing sGC stimulators and mineralocorticoid receptor antagonists” (Bayer Pharma Aktiengesellschaft, priority 2016, dated 2023).

Tested on: L-NAME-treated renin transgenic rats (TGR(mRen2)27)
Test: L-NAME-treated transgenic renin rat (TGR(mRen2)27): mortality and proteinuria
Format: in vivo
Details: finerenone 10 mg/kg od, compound of the formula (X) 0.3 mg/kg od, alone or combined; for All-cause mortality during the study period / Survival rate over the study period: L-NAME-treated TGR(mRen2)27 renin rats, daily gavage; for All-cause mortality during the study period: 15 animals per group, placebo mortality 40%; for Survival rate over the study period: study terminated after 40% of placebo animals had died; for Reduction of proteinuria, measured as protein/creatinine quotient in urine / Protein/creatine quotient - % of group A (proteinuria in % reduction from placebo): L-NAME-treated renin transgenic rats; for Reduction of proteinuria, measured as protein/creatinine quotient in urine: versus placebo; for Protein/creatine quotient - % of group A (proteinuria in % reduction from placebo): urine, end of the study, mean ± SEM, relative to placebo group A
Text: 3.) L-NAME-treated transgenic renin rat (TGR(mRen2)27)
The transgenic renin rat ‘TGR(mRen2)27’ is a hypertensive rat line developed by Mullins and Ganten which overexpresses the Ren-2 gene of the mouse. Additional administration of the nitrogen monoxide synthase inhibitor L-NAME induces endothelial dysfunction which increases morbidity and mortality in this model. Unless subjected to life-long antihypertensive therapy, homozygous animals die of secondary complications such as heart and kidney failure or stroke.
Male TGR(mRen2)27 renin rats aged 10 to 20 weeks are randomized to different pharmacological treatment groups and a placebo group. In addition, the nitrogen monoxide synthase inhibitor L-NAME is administered via the drinking water in a concentration of 30 to 100 mg/l. During the entire experiment, drinking water and feed are available ad libitum to the animals. The substances are administered via the feed or daily by gavage for 4-10 weeks. Animals treated in the same way but receiving either only the solvent or the feed without test substance serve as placebo group. During the experiment, the systolic blood pressure is determined at regular intervals using a tail cuff, and proteinuria and urine electrolyte composition are determined by collecting the urine in metabolic cages. At the end of the experiment, haemodynamic parameters (blood pressure, heart rate, inotropism [dp/dt], relaxation time [tau], maximum left ventricular pressure, left ventricular end-diastolic pressure [LVEDP]) are measured, and the weights of heart, kidney and lung are determined, protein elimination and biomarkers (e.g. ANP, RIA Kit RK 005-24, Phoenix Pharmaceuticals, Inc., USA, cGMP, RIA Kit RE29075, IBL International GmbH, Hamburg, Germany, renin, angiotensin I, RIA Kit CA-1533, DiaSorin S.p.A., Italy, and aldosterone, P2714, DiaSorin S.p.A., Italy) and gene expression of biomarkers by RT/TaqMan PCR following RNA isolation from cardiac and renal tissue are determined.
Cardiac and cardiovascular disorders as well as renal and cardiorenal disorders are characterized by high patient morbidity and also high mortality. This morbidity and mortality, together with various risk factors such as hypertension, can be reproduced very accurately in the above-described animal model of the L-NAME-treated renin transgenic rat. Therefore, this animal model, for example, was used to investigate MR antagonists such as, for example, finerenone according to the compound of the formula (IV) and sGC stimulators such as, for example, the compound of the formula (X), and combinations of both: […]
For example, the MR antagonist finerenone, corresponding to the compound of the formula (IV), and the sGC stimulator, corresponding to the compound of the formula (X), were tested on their own and in combinations in TGR(mRen2)27 renin rats aged 10 to 20 weeks. In addition, the nitrogen monoxide synthase inhibitor L-NAME was administered via the drinking water in a concentration of 30 to 100 mg/l. During the entire experiment, drinking water and feed were available ad libitum to the animals. The substances were administered daily by gavage for 4-10 weeks. Animals treated in the same way but receiving only the solvent for the test substance served as placebo group. In the test series, in addition to placebo (group A), the MR antagonist finerenone corresponding to the compound of the formula (IV) (10 mg/kg od) (group B) and the sGC stimulator corresponding to the compound of the formula (X) (0.3 mg/kg od) (group C) on their own and a combination of finerenone corresponding to the compound of the formula (IV) (10 mg/kg od)+compound of the formula (X) (0.3 mg/kg od) (group D) were administered. In this study, 15 animals were used per group (A, B, C, D) (Table 1): […]

Compound | All-cause mortality during the study period | Survival rate over the study period | Reduction of proteinuria, measured as protein/creatinine quotient in urine | Protein/creatine quotient - % of group A (proteinuria in % reduction from placebo)
COC(=O)Nc1c(N)nc(-c2nn(Cc3ccccc3F)c3ncc(F)cc23)nc1N [compound of the formula (X), methyl {4,6-diamino-2-[5-fluoro-1-(2-fluorobenzyl)-1H-pyrazolo[3,4-b]pyridin-3-yl]pyrimidin-5-yl}carbamate] | 13% | 87% | 51% | −51 + 20%
CCOc1ncc(C)c2c1[C@H](c1ccc(C#N)cc1OC)C(C(N)=O)=C(C)N2 [finerenone, (S)-4-(4-cyano-2-methoxyphenyl)-5-ethoxy-2,8-dimethyl-1,4-dihydro-1,6-naphthyridine-3-carboxamide] | 20% | 80% | 58% | −58 + 16%
